Measured values: patent US20240051952A1, “HMOX1 INDUCERS” (Mitobridge Inc., priority 2019, published 2024)
In brackets after ≈: the same amount, converted by molar mass. Counter-ions that a name gives are not always drawn.

Columns and labels:
Heme Oxygenase 1 (HO1) = assay: PD study, HMOX1 protein levels in mouse plasma and liver (ELISA); type: in vivo; details: HMOX1 protein fold induction vs time-matched vehicle, 50 mpk oral; for Liver Protein (3 h) / Liver Protein (6 h): mouse liver; for Plasma Protein (3 h) / Plasma Protein (6 h): mouse plasma
Procedure: 9-10 week old male C57BL/6 mice were dosed orally with 50 mg/kg of vehicle or compound formulated in 5% w/v tween 80 and 0.5% methyl cellulose. At indicated time points (3 and 6 hours or or 4 and 8 hours post-dosing as shown in the results below), whole blood was collected, animal was sacrificed and liver was collected. Blood samples were transferred to vials containing 4 μL of 10% w/v EDTA, centrifuged at 6000 rpm for 8 in below 10° C. to obtain plasma. Samples were frozen and later processed for HMOX1 protein levels as indicated below:
HMOX 1 Protein Levels: Mouse Liver
Preparation of Homogenization/Lysis Buffer
The homogenization buffer was prepared according Table A.
Immediately prior to use, add DTT (ThermoScientific #R0861) to a final concentration of 5 mM and 100×Halt Protease & Phosphatase Inhibitor Cocktail (ThermoScientific #78440) to a final concentration of 1×.
Preparation of Mouse Liver Samples
Liver samples were crushed by mortar and pestle under freezing conditions. Pulverized tissue was transferred into pre-chilled bead ruptor OMNI tubes (OMNI International, Cat #19-628). 1 mL of homogenization buffer (+DTT and HALT) was added to pulverized tissue and tubes were placed on ice. Samples were loaded and run through bead ruptor at speed 5.64 m/s, for two 20 sec cycles with 10 sec dwell between cycles and samples were immediately returned to ice. All material was transferred to a new chilled 2 mL Eppendorf tube. Samples were centrifuged for 5 minutes at 2,000 rpm at 4° C. Supernatant was transferred to a fresh chilled 1.7 mL Eppendorf tube. Samples were centrifuged for 5 minutes at 2,000 rpm at 4° C. The supernatant, consisting of cytosol and microsomes, was transferred to a fresh chilled 1.7 mL Eppendorf tube. Samples were stored at −80° C. Microsome samples were quantitated using Pierce 660 Assay (ThermoFisher Cat #22660) with pre-diluted BSA standards (ThermoFisher Cat #23208) ranging from 125-2000 μg/mL. Each sample was diluted to 10ng/ul for an ELISA input of 0.5ug in 50ul.
Preparation of Assay Reagents
All assay reagents were provided in the Heme Oxygenase 1 (HO1) Mouse SimpleStep ELISA Kit (Abcam #ab204524). Prior to use, all reagents were equilibrated to room temperature. 1×Wash Buffer PT was prepared by diluting 10×Wash Buffer PT 1:10 with deionized water. Antibody cocktail was prepared by diluting the 10×Capture Antibody and 10×Detector Antibody to 1×in Antibody Diluent 5BI. Mouse heme oxygenase 1 protein standard was reconstituted using 500ul homogenization buffer (Table A), mixed and held at room temperature for 10 minutes prior to dilution. An eight point standard curve was generated by diluting the Stock Standard 1:2 for standard curve ranging from 10,000-156.3 pg/mL.
Heme Oxygenase 1 (HO1) Mouse SimpleStep ELISA
50ul of all samples and standards were added to appropriate wells in duplicate. 50ul of 1×Antibody Cocktail was added to each well. The plate was sealed with provided seal and incubated at room temperature on a plate shaker at 400 rpm. After one hour incubation, the Antibody Cocktail was aspirated and the wells were washed three times with 350ul 1×Wash Buffer PT, aspirating completely between each step. After the last wash was aspirated dry, 100ul TMB Substrate was added to each well and the plate was incubated in the dark at room temperature for 10 minutes on a plate shaker at 400 rpm. After the 10 minute incubation, 100ul of Stop Solution was added to each well. Plate was shaken at 400 rpm for 1 minute to mix. Softmax Pro 7.0.3 was used to read OD at 450 nm as well as for analysis.
Heme Oxygenase 1 Protein Levels in Mouse Plasma
All assay reagents were provided in the Heme Oxygenase 1 (HO1) Mouse SimpleStep ELISA Kit (Abcam #ab204524). 1×Wash Buffer PT was prepared by diluting 10×Wash Buffer PT 1:10 with deionized water. Antibody cocktail was prepared by diluting the 10×Capture Antibody and 10×Detector Antibody to 1×in Antibody Diluent 5BI. […]

FTH1 = FTH1 mRNA expression in HepG2 cells (Nanostring); type: cell-based, human; details: 24 hours treatment
Procedure: RNA Isolation and Quantification of Gene Expression
HepG2 cells were seeded at 250 k/well in 12-well tissue culture plates coated with collagen (collagen I, rat tail (thin plate coating); ENZO Life Sciences) for approximately 24 hours. The seeded cells were then treated with dose titration of the compound of Example 17 or dimethyl fumarate (DMF) (a Nrf2 activator; Fisher Scientific) via media change, with biological triplicates performed for each treatment. After approximately 24 hours of treatment, cells were visually inspected to confirm that no toxicity occurred with compound treatment. The treated cells were washed with PBS, aspirated, parafilmed and frozen at −80° C. prior to RNA isolation. RNA was isolated using Machery-Nagel isolation kit (NucleoSpin® RNA: catalog 740955.250) and then quantitated using ThermoFisher Nanodrop.
RNA was diluted for Nanostring gene expression analysis. The diluted RNA at an input of 200ng RNA was run on a Nanostring instrument, which was supported with nCounter® SPRINT Profiler System and nSolver4.0 Software, nCounter® SPRINT Cartridge, nCounter® SPRINT Reagent Pack, and nCounter© SPRINT Hybridization Buffer. Analysis was done manually using raw data obtained from nSolver4.0 Software. CLTC, POLR2A, RPL27 and TBP were used as reference genes for normalization. Data was graphed as fold change compared to DMSO treatment. […]

[1] = test system: Human Heme Oxygenase-1 (HMOX-1); assay: ELISA assay to measure human heme oxygenase-1 (HMOX-1) in HepG2 lysate; type: cell-based; details: for Maximum Fold induction: fold change of human HMOX1 protein levels relative to DMSO control, HepG2; for EC50: human HMOX1 protein in HepG2 lysate, ELISA, * = average of 2 or more EC50 determinations, NA = Not Active
Outline: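 HO-1 protein quantified by chemiluminescent sandwich ELISA against a 2-fold standard series starting at 20 ng/ml. Samples were 1:20-diluted HepG2 lysates made in Triton X-100/EDTA buffer with protease inhibitors. Capture antibody coated at 8 μg/ml, detection antibody used at 200 ng/ml, room-temperature (20 °C) steps.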

Kinetic solubility = type: physicochemical; details: Dulbecco's phosphate buffered saline (DPBS), aqueous buffer, kinetic from dmso stock, DPBS pH 7.4, 25° C., 200 μM test compound
Procedure: 10 μL of 10 mM DMSO stock solution were aliquotted to 490 μL of DMSO solution and separately 490 μL of Dulbecco's phosphate buffer saline, DPBS, pH 7.4 solution in 1.2 mL 96-well plates in duplicate. Final concentration was 200 μM of the test compound. Samples were incubated at 25° C. with shaking at 200 rpm for 16 h. Samples were centrifuged at 3500 rpm for 20 min at 25° C., and supernatant was submitted for HPLC analysis.
Kinetic solubility was measured using the following equation: […]

[2] = PD study, liver compound concentration in mice; type: in vivo; details: mouse liver, 50 mpk oral
[3] = PK study, plasma and brain levels in C57BL/6 mice; type: in vivo, mouse; details: male C57BL/6 mice, 50 mg/kg oral
Procedure: 9-10 week old male C57BL/6 mice were dosed orally with 50 mg/kg of the test compound formulated in 5% w/v tween 80 and 0.5% methyl cellulose. At 0.5 and 4 h post dosing, whole blood was collected, animals were sacrificed and brain tissues were collected. The blood samples were immediately placed on ice, and centrifuged within 60 min at 4° C. for 3 min at 14000 rpm to obtain plasma. Plasma was transferred by pipette to pre-labeled Eppendorf tubes, stored at −80° C. until analyzed.
Brain tissue samples were collected and rinsed with fresh ice cold 0.9% NaCl solution, dried quickly and thereafter frozen on dry ice/liquid nitrogen and stored at −70±10° C. until analyzed. Homogenization was done using phosphate buffer saline and used for analysis. Bioanalysis was performed using LC-MS/MS (API 4000).

Structure (SMILES) | Maximum Fold induction [1] | EC50 [1] | solubility at 16 h (Kinetic solubility) | Liver Protein (3 h) (Heme Oxygenase 1 (HO1)) | Liver Protein (6 h) (Heme Oxygenase 1 (HO1)) | Plasma Protein (3 h) (Heme Oxygenase 1 (HO1)) | Plasma Protein (6 h) (Heme Oxygenase 1 (HO1)) | other results
Cn1c(Nc2nc3ccc(OC(F)(F)F)cc3s2)nc2cc(C(=O)NCCOCCO)ccc21 [Comparator 1, 1-methyl-2-(6-trifluoromethoxy-benzothiazol-2-ylamino)-1H-benzoimidazole-5-carboxylic acid [2-(2-hydroxyethoxy)-ethyl]-amide, reference compound] |  |  |  | 1.6x | 3.2x | 1.1x | 1.3x | 
COC(=O)/C=C/C(=O)OC [DMF, dimethyl fumarate, reference compound] |  |  |  |  |  |  |  | FTH1 expression fold increase (FTH1): comparable fold increases
Cn1c(Nc2nc3c(s2)CC(C)(C)CC3)nc2cc(C(=O)NCCOCCO)ccc21 [Example 6, 2-((6,6-dimethyl-4,5,6,7-tetrahydrobenzo[d]thiazol-2-yl)amino)-N-(2-(2-hydroxyethoxy)ethyl)-1-methyl-1H-benzo[d]imidazole-5-carboxamide] | 41 | 3000 nM | 8.1 µM (≈ 3.59 µg/mL) |  |  |  |  | 
CC1CCc2nc(Nc3nc4cc(C(=O)NCCOCCO)ccc4n3C)sc2C1 (centres unmarked) [Example 7, N-(2-(2-hydroxyethoxy)ethyl)-1-methyl-2-((6-methyl-4,5,6,7-tetrahydrobenzo[d]thiazol-2-yl)amino)-1H-benzo[d]imidazole-5-carboxamide] | 27 | 2700 nM | 7.2 µM (≈ 3.09 µg/mL) |  |  |  |  | 
COCCNC(=O)c1ccc2c(c1)nc(Nc1nc3c(s1)CCC3)n2C [Example 8, 2-((5,6-dihydro-4H-cyclopenta[d]thiazol-2-yl)amino)-N-(2-methoxyethyl)-1-methyl-1H-benzo[d]imidazole-5-carboxamide] | 5-8 | 2500 nM | 6.9 µM (≈ 2.56 µg/mL) |  |  |  |  | 
Cl.Cn1c(Nc2nc3c(s2)CNCC3)nc2cc(C(=O)NCCOCCO)ccc21 [Example 9, N-(2-(2-hydroxyethoxy)ethyl)-1-methyl-2-((4,5,6,7-tetrahydrothiazolo[5,4-c]pyridin-2-yl)amino)-1H-benzo[d]imidazole-5-carboxamide hydrochloride] | 2 |  | 2.8 µM |  |  |  |  | 

The next lines start with results.

Maximum Fold induction [1] | EC50 [1] | solubility at 16 h (Kinetic solubility) | Structure (SMILES) | Liver Protein (3 h) (Heme Oxygenase 1 (HO1)) | Liver Protein (6 h) (Heme Oxygenase 1 (HO1)) | Plasma Protein (3 h) (Heme Oxygenase 1 (HO1)) | Plasma Protein (6 h) (Heme Oxygenase 1 (HO1)) | other results
6-27 |  |  | Cn1c(Nc2nc3cc(OC(F)(F)F)ccc3[nH]2)nc2cc(C(=O)O)ccc21 [Example 13, 1-methyl-2-((5-(trifluoromethoxy)-1H-benzo[d]imidazol-2-yl)amino)-1H-benzo[d]imidazole-5-carboxylic acid] | 1.8x | 1.2x | 1.1x | 0.8x | 
18 |  | 3.5 µM (≈ 1.46 µg/mL) | Cn1c(Nc2nc3ccccc3o2)nc2cc(C(=O)NCCNC3=NCCN3)ccc21 [Example 22, 2-(benzo[d]oxazol-2-ylamino)-N-(2-((4,5-dihydro-1H-imidazol-2-yl)amino)ethyl)-1-methyl-1H-benzo[d]imidazole-5-carboxamide] |  |  |  |  | 
9-14 |  |  | Cn1c(Nc2nc3ccc(OC(F)(F)F)cc3o2)nc2cc(C(=O)O)ccc21 [Example 44, 1-methyl-2-((6-(trifluoromethoxy)benzo[d]oxazol-2-yl)amino)-1H-benzo[d]imidazole-5-carboxylic acid] | 1.6x | 2.1x | 1.0 x | 1.1x | Liver Conc uM (3 h) ([2]; 3 h): 217 µM; Liver Conc uM (6 h) ([2]; 6 h): 162 µM
21-38 |  |  | COCCNC(=O)c1ccc2c(c1)nc(Nc1nc3ccc(OCCOC)cc3o1)n2C [Example 56, 2-((6-(2-methoxyethoxy)benzo[d]oxazol-2-yl)amino)-N-(2-methoxyethyl)-1-methyl-1H-benzo[d]imidazole-5-carboxamide] |  |  |  |  | brain penetration [3]: good brain penetration
